These results are taken from paper PMC11262537, “Cell-Penetrating Chaperone Nuc1 for Small- and Large-Molecule Delivery Into Retinal Cells and Tissues” (Investigative Ophthalmology & Visual Science, 2024).

“Also recorded” adds a separate entry of the source. Residues, ends and D or L forms follow the SMILES beside them. No end group written: not given here. *: point of attachment. 6FAM = O=C1OC2(c3ccc(O)cc3Oc3cc(O)ccc32)c2cc(C(=O)*)ccc21

Series [1] has as its system murine retinal tissue explants. Put plainly: Retinal explant culture uptake with or without imipramine (macropinocytosis). The series is classed as cell-based, C57BL6/J mice. The conditions noted are these: 37°C, confocal imaging, n = 3–4 explants per group; for uptake into retinal explants in presence of imipramine: 1 µg/mL in DMEM/F12 + 5 µM imipramine, 4 hours; for uptake into retinal explants: 1 µg/mL in DMEM/F12, 4 hours, 5% CO2, absence of imipramine. Here is the method:
After careful removal, the eyeballs from C57BL6/J mice were transferred to a Petri dish containing fresh cold Dulbecco's modified Eagle's medium (DMEM). Under a dissecting microscope, the cornea, ocular muscles, and lens were removed and flat mounts prepared via making four incisions from the margin of the eye cup toward the optic nerve. Flat mounts were transferred into six-well plates containing fresh DMEM/F12 mixed with 5′ 6-FAM-Nuc1 or 5′ 6-FAM-SC (1 µg/mL) in presence or absence of 5 µM imipramine (Sigma). After 4 hours of culturing in a cell culture incubator (37°C, 5% CO2), retinas were washed twice with PBS and fixed with 4% PFA for 15 minutes. Thereafter, the tissue sections were soaked in 15% to 30% sucrose at 4°C overnight. Retinal explants were frozen into Tissue-Tek cryomolds (Torrence, CA, USA) and the 14-µm sections were imaged under a Leica (Teaneck, NJ, USA) TCS-SPE confocal microscope.
Macropinocytosis is a specialized pathway of endocytosis characterized by the nonspecific internalization of extracellular fluids, solutes, and membrane in large endocytic vesicles known as macropinosomes. Macropinocytosis plays a role in a variety of physiological processes, including nutrient sensing, recycling of plasma proteins, and signaling.[42]^,[43] Molecules that bind HSPGs can stimulate bulk cellular uptake via macropinocytosis.[19] […] In order to test the hypothesis that Nuc1 can be taken up by cells via macropinocytosis, murine retinal tissue explants were incubated in 5′ 6-FAM-Nuc1 (1 µg/mL) in the presence or absence of 5 µM imipramine. After 4 hours, explants were processed for cryosectioning as above. We found robust uptake of 5′ 6-FAM-Nuc1 within 4 hours of incubation (Fig. 7). […] We conclude that Nuc1 peptide penetrates retinal cells in part by the process of macropinocytosis.

Series [2] relates to retinal tissues and cells. Put plainly: Retinal penetration of FAM-labeled peptide after intravitreal injection, fluorescence microscopy of cryosections. The class given is in vivo, C57BL/6J mice. The conditions noted are these: for localization in retinal layers: 1 µg in 1 µL H2O intravitreal, 4 hours postinjection, fluorescence microscopy of cryosections, n = 4 to 5 animals per group. How it is done: Retinal cryosections (14 µm) were rehydrated in phosphate-buffered saline (PBS) for 15 minutes, permeabilized, and blocked with 6% normal goat serum in PBS containing 0.1% Triton-X-100 (or using mouse-on-mouse kit as appropriate) for 45 minutes and incubated overnight in a saturated chamber with the primary antibodies against anti-glutamine synthetase (Müller cells), anti–β-III-tubulin (ganglion cells), anti-rhodopsin (rod cells), anti–S-opsin (cone cells), and anti-PKCα (bipolar cells). Subsequently, sections were washed and incubated with respective secondary antibodies labeled with Alexa Fluor 594 or 488 (Molecular Probes, Eugene, OR, USA) or Cy3 (Jackson Immunoresearch, Westgrove, PA, USA). Slides were mounted in antifade medium containing DAPI (Vectashield-DAPI; Vector Laboratories, Burlingame, CA, USA) to counterstain nuclei, and images were captured with a Leica TCS SPE microscope (Leica Microsystems, Wetzlar, Germany).
(§1) In order to determine whether Nuc1 peptide was toxic to the murine retina, we injected various amounts (0.5–4.0 µg) 5′ 6-FAM–labeled Nuc1 into the vitreous of 6-week-old C57BL/6J mice and processed the retinas as described below. We determined that 1 µg Nuc1 was not toxic to the retina, whereas 4.0 µg Nuc1 generated some toxicity (data not shown). Based on these observations, we selected 1 µg as an optimal working dose. We then injected 1 µg 5′ 6-FAM–labeled Nuc1 suspended in 1 µL H2O or 1 µg 5′ 6-FAM-SC (a scrambled peptide) into the vitreous of 6-week-old C57BL/6J mice. Four hours postinjection, eyes were enucleated, fixed, and cryosectioned and the retina was imaged by fluorescence microscopy. […] We conclude that Nuc1 peptide penetrates the retina and labels a variety of retinal cells following intravitreal injection.

In the next series the test system is murine retina. Put plainly: Retinal toxicity of Nuc1 after intravitreal injection. The class given is in vivo, C57BL/6J mice. The following applies: for toxicity to the retina: 6-week-old C57BL/6J mice, data not shown. How it is done: as §1
Furthermore, while sequences used in the design of Nuc1 were selected based on prior studies of nucleolin and heparan-sulfate proteoglycan-binding sequences, detailed analysis of mechanism(s) of uptake is ongoing in our laboratory. Such studies face the challenge of limitations associated with retinal cell culture with a bona fide extracellular matrix.

`CC[C@H](C)[C@H](NC(=O)[C@H](CO)NC(=O)[C@H](C)NC(=O)c1ccc2c(c1)C1(OC2=O)c2ccc(O)cc2Oc2cc(O)ccc21)C(=O)N[C@@H](CCCCN)C(=O)N[C@H](C(=O)N[C@@H](C)C(=O)N[C@H](C(=O)N[C@@H](CO)C(=O)N[C@@H](C)C(=O)NCC(=O)NCC(=O)N[C@@H](CC(=O)O)C(=O)N[C@@H](CCCCN)C(=O)N1CCC[C@H]1C(=O)N[C@@H](CCCNC(=N)N)C(=O)N[C@@H](CCCNC(=N)N)C(=O)O)C(C)C)C(C)C` [5′ 6-FAM-Nuc1] (6FAM-ASIKVAVSAGGDKPRR-OH): in series [1], the “uptake into retinal explants in presence of imipramine” value is reported as “significantly reduced uptake” and the “uptake into retinal explants” value was “robust uptake”. Moreover, the “localization in retinal layers” value in series [2] is reported as “abundantly localized to all layers of the retina; also recorded: localizes to all layers of the retina”. In addition, the “retinal cell types targeted” value in series [2] (1 µg intravitreal, 4 hours, costaining for tubulin, PKC, rod opsin, glutamine synthase) was “ganglion cells, bipolar cells, photoreceptors, and Müller cells”.
Regarding `CC[C@H](C)[C@H](NC(=O)[C@H](CO)NC(=O)[C@H](C)NC(=O)[C@H](CCCNC(=N)N)NC(=O)c1ccc2c(c1)C1(OC2=O)c2ccc(O)cc2Oc2cc(O)ccc21)C(=O)N[C@@H](C)C(=O)N[C@@H](CCCCN)C(=O)N[C@@H](C)C(=O)N[C@@H](CCCNC(=N)N)C(=O)N[C@@H](CC(=O)O)C(=O)N[C@H](C(=O)N[C@@H](CCCCN)C(=O)NCC(=O)N[C@H](C(=O)N1CCC[C@H]1C(=O)NCC(=O)N[C@@H](CO)C(=O)O)C(C)C)C(C)C` [5′ 6-FAM-SC, reference compound] (6FAM-RASIAKARDVKGVPGS-OH), in series [1], the “uptake into retinal explants in presence of imipramine” value is “marginal reduction in uptake” and the “uptake into retinal explants” value was “did not show any significant uptake”. Also, the “localization in retinal layers” value in series [2] was “accumulated primarily at the inner limiting membrane and was very weakly visible in the retina; also recorded: does not significantly penetrate the retina”.
With ASIKVAVSAGGDKPRR [Nuc1], the “toxicity to the retina” value was “not toxic” with murine retina (1 µg 5′ 6-FAM-labeled Nuc1 intravitreal) and “some toxicity” with murine retina (4.0 µg 5′ 6-FAM-labeled Nuc1 intravitreal). Moreover, the “obvious toxicity associated with Nuc1” value with murine retina (short-term (4 hours) or longer-term (2 weeks) proof-of-concept studies) is “did not observe any obvious toxicity”.
